Assay results: patent publication US4954637A, “Certain maleimide-N-alkylenecarboxylate-ortho-nitrobenzenesulfonic acid esters and derivatives useful for coupling biological materials” (Cetus Corporation, priority 1987, dated 1990)
Like-named read-outs stand apart in the source and are kept apart here.

Assays:
polylysine = conditions: over a 5 minute period; pH 7.4, room temperature
Protocol: A total of 25 mg (0.34 μmoles) of polylysine obtained from Sigma Chemical Co. (Sigma) was succinylated to approximately 20 amines remaining unsuccinylated per polylysine molecule, and redissolved in 0.5 ml of 0.1M phosphate buffer at pH 7.4 to yield an amine concentration of 1.0×10^-2 M. Five mg (1.0×10^-5 moles) of the biotin HNSA ester was dissolved in 0.5 ml of the polylysine solution. The mixture was stirred at room temperature to initiate reaction. Ten μl aliquots were removed from the incubating solution at timed intervals and were each diluted into 1.0 ml of 0.01M phosphate buffer at pH 7.0. The spectrum of each diluted aliquot was measured and the absorbance at 406 nm recorded.

cells = conditions: vs biotin-p-nitrophenyl ester; fluoresceinated avidin; cited from earlier work
bovine serum albumin = conditions: pH 8.5; vs same ester of N-hydroxysuccinimide; cited from earlier work
[1] = tested on: sheep red blood cells (SRBC); test: Labelling of sheep red blood cells, Coulter EPICS V Cytofluorometer; format: cell-based; conditions: excitation at 360 nm
Protocol: Dansyl-sac-HNSA ester was prepared as described in Example 1A using molar equivalents of HNSA, dicyclohexylcarbodiimide and dansyl-ε-aminocaproic acid (from Sigma Chemicals). For use in coupling to sheep red blood cells (SRBC) the dansyl-sac-HNSA ester (50 mg) was prepared in 7 ml of 0.28M cacodylate buffer, pH 6.9.
Sheep red blood cells were washed 4 times (400×g. 8 minutes) in G-PBS buffer (5% α-D-glucose w/v in PBSCa-Mg). To 1 ml of packed red blood cells was added the 7 ml of dansyl-sac-HNSA ester dropwise with gentle mixing for 10 minutes at room temperature. The reaction was done in foil-wrapped glassware to protect against photodecomposition. Following the reaction the cells were washed in cold G-PBS buffer containing 1% heat inactivated (56° C., 30 minutes) FCS (fetal calf serum) until the supernatants were colorless (a minimum of 4 washes).
The dansyl-sac-HNSA labelled SRBC were monitored using a Coulter EPICS V Cytofluorometer immediately after labeling and at 24 hours. […] This translates to an increase in intensity 720 times over unlabeled cells.

[2] = format: physicochemical; conditions: 50 μl of 4.8N NaOH added to aliquot in 1 ml pH 7.0 buffer
Protocol: About 0.5 mg of the purified mal-sac HNSA ester from Example IA was dissolved in 1 ml of distilled water.
The difference between the post-base and initial free HNSA concentration represents the concentration of ester. From the actual concentration of ester the amount of ester to be added to the protein solution to achieve the desired degree of substitution can be calculated.

Solubility in water = format: physicochemical
[3] = Stability in water and on storage; format: physicochemical; conditions: no nucleophiles added
streptavidin = tested on: streptavidin; design: species or system Streptomyces avidinii; conditions: over the period measured; pH 7.4, room temperature
Protocol: A total of 0.26 mg (4.3×10^-3 μmoles) of streptavidin purified from Streptomyces avidinii by the method of Hoffman et al., PNAS. 77, 4666-4668 (1980) was dissolved in 1.0 ml of phosphate buffered saline at pH 7.4 to yield a total amine concentration of 6.93×10^-5 M (16NH2 /streptavidin). […] Good separation was achieved between the protein and the excess HNSA and unreacted HNSA ester. […] In this case 79% of the amino groups on streptavidin (12.9 out of 16.0) reacted.

biotinylated polylysine = test: Coupling of mal-sac-HNSA to biotinylated polylysine, then to HRP-SH; conditions: over a 30 minute period; pH 7.4, room temperature
Protocol: Biotinylated Polylysine (0.6 ml; 73,000 D average mol. wt.) was adjusted to pH 7.4 with 0.015 ml of 2.5N NaOH. Approximately 5 mg of mal-sac-HNSA was added to the biotinylated polylysine and stirred at room temperature. Ten μl aliquots were removed from the mixture at timed intervals and diluted into 1.0 ml of 0.01M phosphate buffer at pH 7.0. The spectrum of each diluted aliquot was measured and the absorbance at 406 nm recorded. A total of 50 μl of 4.8N NaOH solution was then added to each aliquot, mixed, and the spectrum retaken.
After 30 minutes of incubation time, the reaction was stopped using a Sephadex G-25 column, and the high molecular weight (biotin)4-polylysine-(sac-mal)18 was well separated from excess HNSA and unreacted mal-sac-HNSA.

[4] = tested on: bovine serum albumin (BSA); conditions: for Concentration of Ester: diluted aliquot
Protocol: A total of 22 mg ([…]) of BSA (of molecular weight 66,296) was dissolved in 2.0 ml of 0.01M phoshate buffer at pH 7.5 to yield a total amino concentration of 1.0×10^-2 moles per liter (assuming 59 lysines/BSA molecule). A calculated amount mg. […] The reaction was carried out at room temperature. […]
It was found at 15 minutes of reaction time that 2.6×10^-3 moles/1 of the ester had reacted and thus 25.9% of the 59 ε-amino groups of BSA were presumably substituted. Thus, the product contained 16 mal-sac groups per molecule.

[5] = tested on: Horseradish peroxidase (HRP); conditions: over a 30 minute period; pH 7.0, room temperature

SMILES: O=C1N[C@H]2[C@H](CS[C@H]2CCCCC(=O)Oc2ccc(S(=O)(=O)O)cc2[N+](=O)[O-])N1 [Biotin-HNSA Ester]
- reaction rate (polylysine): essentially linear
- increase in fluorescence (cells): much larger increase in fluorescence

SMILES: O=C(CCCCCNc1ccc([N+](=O)[O-])cc1[N+](=O)[O-])Oc1ccc(S(=O)(=O)O)cc1[N+](=O)[O-] [N-2,4-dinitrophenyl-6-aminocaproic acid ester of HNSA]
- conjugation efficiency (bovine serum albumin): more efficient than the same ester of N-hydroxysuccinimide

SMILES: CN(C)c1cccc2c(S(=O)(=O)NCCCCCC(=O)Oc3ccc(S(=O)(=O)O)cc3[N+](=O)[O-])cccc12 [dansyl-sac-HNSA]
- increase in fluorescence intensity over unlabeled cells [1]: 720 times

SMILES: O=C(CCCCCN1C(=O)C=CC1=O)Oc1ccc(S(=O)(=O)O)cc1[N+](=O)[O-] [mal-sac-HNSA, N-maleimido-6-aminocaproylHNSA]
- hydrolysis by hydroxide [2]: rapidly hydrolyzed
- solubility in water (Solubility in water): dissolve fully in water
- stability in water [3]: stable in water for several hours
- reaction rate (streptavidin): essentially linear
- reaction rate (biotinylated polylysine): essentially linear
- Concentration of Ester ([4]; 0 minutes): 1.56 × 10^-4 moles/1
- Concentration of Ester ([4]; 5 minutes): 1.16 × 10^-4 moles/1
- Concentration of Ester ([4]; 9 minutes): 1.03 × 10^-4 moles/1
- Concentration of Ester ([4]; 14 minutes): 1.11 × 10^-4 moles/1
- ester reacted ([4]; 15 minutes of reaction time): 2.6×10^-3 moles/1
- reaction rate [5]: essentially linear
- Percent Ester Remaining (avidin; 10 minutes, room temperature): 81%
- reaction rate (avidin; 30 minutes, FIG. 3): linear
